Tests used:
Ih = conditions: applied intracellularly at 5 or 10 mM (Perkins et al. 1995); cited from earlier work
[1] = tested on: preclinical models of neuropathic pain; conditions: Chaplan 1999; cited from earlier work
CFA-injected rats = assay: Tactile allodynia (von Frey) in complete Freund's adjuvant (CFA) paw model of inflammatory pain; assay type: in vivo, rat; conditions: i.p., ZD7288 10 mg/kg, ibuprofen 30 mg/kg, morphine 3 mg/kg, gabapentin 100 mg/kg
[2] = tested on: native Ih in normal rat L4 dorsal root ganglion neurons; assay: Whole cell patch clamp of native Ih in dissociated normal rat L4 DRG neurons, lidocaine block; assay type: cell-based
Protocol: Lidocaine was tested for its effect on Ih expressed in dissociated L4 dorsal root ganglion neurons from uninjured rats to determine whether this well known Na channel blocker could have other mechanisms of action.
DRG were extirpated, dissociated and cultured 3-4 days on poly-D-lysine coated coverslips as described in Example 10. Ih was measured using the whole cell configuration of the patch clamp technique according to the methods described in Example 10 with the exception that the pipette solution was the solution used in Example 3. Neurons were challenged with a family of hyperpolarizing voltage pulses (−60 mV to −150 mV in increments of 10 mV) from a holding potential of −50 mV. Ih was determined at the end of 600 msec duration test pulses. Lidocaine was bath-applied at neutral pH and the percent inhibition of control Ih was determined after lidocaine achieved steady state block. Plotted is the steady state current observed at −134 mV as a percent of control after incubation of lidocaine at the indicated concentrations. […] Lidocaine block was reversible. Data were obtained from 3 cells having control Ih densities of −1.5, −2.0 and −2.2 pA/pF.

[3] = tested on: Ih in rabbit sinoatrial node; conditions: rabbit sinoatrial node (Rocchetti et al. 1999); read-out: ED50 of Ih block previously reported; cited from earlier work
[4] = tested on: rat mild thermal injury model; assay: Spontaneous pain behaviors in rat mild thermal injury (first-degree burn) model; assay type: in vivo; conditions: 30 and 60 min after i.p. administration

CC[N+](CC)(CC)CC(=O)Nc1c(C)cccc1C [QX-314]
block of Ih (Ih): blocks Ih

CCCCN1CCCCC1C(=O)Nc1c(C)cccc1C (stereo not shown) [bupivacaine]
anti-hyperalgesic activity [1]: does not possess any anti-hyperalgesic activity

NCC1(CC(=O)O)CCCCC1 [gabapentin]
suppression of CFA-induced tactile allodynia (CFA-injected rats): not

CC(C)Cc1ccc(C(C)C(=O)O)cc1 (stereo not shown) [ibuprofen]
suppression of CFA-induced tactile allodynia (CFA-injected rats): suppressed | suppression of CFA-induced tactile allodynia (CFA-injected rats; listed as Ibuprofen): some efficacy

CCN(CC)CC(=O)Nc1c(C)cccc1C [lidocaine]
reversibility of Ih block [2]: reversible | EC50 ([2]; bath-applied at neutral pH, current at −134 mV, 3 cells, read-out: ED50 of concentration-dependent block of Ih): 23 µM | EC50 [3]: 38.2 µM

CN1CC[C@]23c4c5ccc(O)c4O[C@H]2[C@@H](O)C=C[C@H]3[C@H]1C5 [morphine]
suppression of spontaneous pain behaviors [4]: near complete suppression | suppression of CFA-induced tactile allodynia (CFA-injected rats): suppressed

— patent US20030022812A1, “Treating pain by targeting hyperpolarization-activated, cyclic nucleotide-gated channels” (priority 2001, published 2003)
